# Measurements published in ChEMBL document CHEMBL1127181, “Novel sigma receptor ligands 1” (Bioorg Med Chem Lett, 1993).
# pKi: −log10 of the molar value.
# Biological target: Glutamate [NMDA] receptor
# Test: Binding affinity towards PCP receptor in guinea pig brain membrane using radiolabeled ligand [3H]TCP (1-[1-(2-thienyl)cyclohexyl]piperidine) was determined
# Type: cell membranes, Cavia porcellus
row,pKi,SMILES
1,5.36,O=C1C=C(c2ccccc2)OC12CCN(Cc1ccccc1)CC2
2,< 5.00,O=C1C=C(c2ccccc2)OC12CCN(CCc1ccccc1)CC2
3,< 5.00,O=C1C(c2ccccc2)=COC12CCN(CC1CCCCC1)CC2
4,< 5.00,O=C1C(c2ccc(F)cc2)=COC12CCN(Cc1ccccc1)CC2
5,5.08,O=C1C=C(c2ccc(F)cc2)OC12CCN(CCc1ccccc1)CC2
6,5.69,O=C1C(c2ccc(F)cc2)=COC12CCN(Cc1ccc(F)cc1)CC2
7,4.92,O=C1C(c2ccc(F)cc2)=COC12CCN(CC1CCCCC1)CC2
8,5.65,O=C1C(c2ccc(F)cc2)COC12CCN(Cc1ccccc1)CC2 (centres undefined)
9,4.00,CCN(CC)CCCC1(C)OC=C(c2ccccc2)C1=O (centres undefined)
